Counter-ions that a name gives are not always drawn. Like-named read-outs stand apart in the source and are kept apart here.
Experiments:
[1] = test system: Cryptosporidium parvum; experiment: qRT-PCR assay of the growth of C. parvum in vitro in HCT-8 host cells (primary and secondary screening, EC50); assay type: cell-based; conditions: Cryptosporidium parvum, HCT-8; for inhibition at 3.3 µM: secondary screening at 3.3 uM, read-out: % Inhibition (3.3 uM)
[2] = test system: HCT-8 host cells (Hs18S)
[3] = in vitro; conditions: for cytotoxicity at 41 h, 10 µM: human
[4] = primary screening at 10 uM, read-out: Inhibition (%)
[5] = primary screening at 10 uM, treated vs control

SMILES | inhibition at 10 µM [1, 4] | inhibition at 3.3 µM [1] | Hs18S ΔCT ([2]; human, 41 h, 10 μM) | cytotoxicity at 41 h, 10 µM [3] | Hs18S ΔCT [2, 5] | cytotoxicity at 10 µM [3] | inhibition at 10 µM [1] | Hs18S ΔCT [2]
CC1=C(CCC(=O)O)c2cc3[nH]c(cc4nc(cc5[nH]c(cc1n2)c(C)c5C(C)O)C(C)=C4C(C)O)c(C)c3CCC(=O)O (stereo not drawn) [HAEMATOPORPHYRIN] | 93.1% | 33% | 1.45 | 63.3% |  |  |  | 
COc1ccc([C@@H](C)C(=O)c2ccc(O)cc2O)cc1 [ANGOLENSIN (R)] | -26.9% |  | -0.17 | -12.5% |  |  |  | 
COc1c2ccoc2nc2c(OC)c(OCC(O)C(C)(C)O)ccc12 (stereo not drawn) [EVOXINE] | -7.37% |  | 0.11 | 7% |  |  |  | 
COc1ccc2[nH]cc(CCNC(C)=O)c2c1 [MELATONIN] | -62.2% |  | -1.56 | -196% |  |  |  | 
Cc1c(C(=O)O)c(O)cc2c1C(=O)c1c(O)c([C@@H]3O[C@H](CO)[C@@H](O)[C@H](O)[C@H]3O)c(O)c(O)c1C2=O [CARMINIC ACID] | -24.9% |  | -0.10 | -7.5% |  |  |  | 
CC(C)=CCC/C(C)=C/COc1ccc2ccc(=O)oc2c1 | 3.93% |  |  |  | 0.02 | 1.2% |  | 
c1coc(CNc2ncnc3[nH]cnc23)c1 [KINETIN] | -42.7% |  | 0.54 | 31% |  |  |  | 
C=C(C)[C@H]1COc2cc3oc(=O)ccc3cc2O1 [OBLIQUIN] | 1.63% |  |  |  | -0.33 | -25.7% |  | 
C/C=C/c1ccc(OC)cc1 [ANETHOLE] | -5.3% |  | -0.08 | -5.8% |  |  |  | 
CN1CCCCC1c1ccc(-c2cccnc2)nc1 (stereo not drawn) [ANABASAMINE HYDROCHLORIDE] | 8.75% |  |  |  | 0.40 | 24.3% |  | 
O=C1C=C2C=C[C@@H]3C[C@@]2(O1)[C@H]1CCCCN31 [SECURININE] | 9.24% |  |  |  | 0.05 | 3.6% |  | 
CC1=C(/C=C/C(C)=C/C=C/C(C)=C/C=C/C=C(C)/C=C/C=C(C)/C=C/C(=O)[C@]2(C)C[C@@H](O)CC2(C)C)C(C)(C)C[C@H](O)C1 [CAPSANTHIN] | -5.31% |  | -0.08 | -5.5% |  |  |  | 
O=C(CCc1ccc(O)cc1)c1c(O)cc(O)cc1O[C@@H]1O[C@H](CO)[C@@H](O)[C@H](O)[C@H]1O [PHLORIDZIN] | 28.9% |  | -0.08 | -5.8% |  |  |  | 
COc1ccc(-c2cc(=O)c3c(OC)c(OC)c(OC)cc3o2)cc1OC [SINENSETIN] | 42.8% |  | 0.39 | 23.6% |  |  |  | 
CN1CC(=O)NC1=N [CREATININE] | 20.5% |  | 0.00 | 0.2% |  |  |  | 
CC[C@H](CC[C@@H](C)[C@H]1CC[C@H]2[C@@H]3CC=C4C[C@@H](OC(C)=O)CC[C@]4(C)[C@H]3CC[C@]12C)C(C)C [SITOSTERYL ACETATE] | -3.86% |  | -0.17 | -12.4% |  |  |  | 
O=C(O)c1cc(O)c2cccc(O)c2n1 [X[…]] |  |  |  |  | -0.32 | -24.4% | 20.3% | 
S=C=NCc1ccccc1 [BENZYL ISOTHIOCYANATE] | 91.8% | 14% |  | 32.8% | 0.57 |  |  | 
CC(=O)O[C@H]1C(=O)[C@@]2(C)[C@H]([C@H](OC(=O)c3ccccc3)[C@]3(O)C[C@H](OC(=O)[C@H](O)[C@@H](NC(=O)c4ccccc4)c4ccccc4)C(C)=C1C3(C)C)[C@]1(OC(C)=O)CO[C@@H]1C[C@@H]2O [PACLITAXEL] | 86.6% | 93% | 0.65 | 36.1% |  |  |  | 
CC/C=C\C/C=C\C/C=C\C/C=C\C/C=C\C/C=C\CCC(=O)O [DOCONEXENT] | -24.5% |  | -0.06 | -4% |  |  |  | 
NCCCCNCCCN [SPERMIDINE TRIHYDROCHLORIDE] | 23.9% |  | -0.63 | -54.4% |  |  |  | 
COc1cc2c(cc1OC)[C@@H]1C(=O)c3ccc(OC)c(CC=C(C)C)c3O[C@@H]1CO2 [ROTENONIC ACID, METHYL ETHER] | 11.8% |  |  |  | 0.30 | 18.7% |  | 
C=C[C@H]1C[N@@]2CC[C@H]1C[C@@H]2[C@@H](O)c1ccnc2ccc(OC)cc12 [QUINIDINE GLUCONATE] | 11.2% |  | -0.03 | -2% |  |  |  | 
COc1c2occc2c(OC)c2c(=O)cc(C)oc12 [KHELLIN] | -11.8% |  | 0.22 | 14.1% |  |  |  | 
COc1ccc(Cc2nccc3cc(OC)c(OC)cc23)cc1OC [PAPAVERINE HYDROCHLORIDE] | 56.2% |  |  | 32.7% |  |  |  | 0.57
CC[C@H]1[C@@H]2C[C@H]3[C@@H]4N(C)c5ccccc5[C@]45C[C@@H]([C@H]2[C@H]5O)N3[C@@H]1O [AJMALINE] | -1.24% |  |  |  | 0.10 | 6.9% |  | 
C[n+]1cccc(C(=O)[O-])c1 [TRIGONELLINE] | -29.9% |  | 0.03 | 2.2% |  |  |  | 
O=Cc1ccccc1O[C@@H]1O[C@H](CO)[C@@H](O)[C@H](O)[C@H]1O [HELICIN] | 18.6% |  | 0.07 |  |  | 4.7% |  | 
O=C(O)c1cc(=O)[nH]c(=O)[nH]1 [OROTIC ACID] | 8.85% |  | -0.39 | -31.1% |  |  |  | 
CC(=O)O[C@H]1C[C@@H](OC(C)=O)C(C)(C)[C@@H]2C[C@@H](OC(C)=O)[C@]3(C)[C@H](CC[C@@]4(C)[C@H](c5ccoc5)OC(=O)[C@H]5O[C@@]534)[C@@]12C [KHIVORIN] | 52.4% |  | 0.12 | 8% |  |  |  | 
